Data taken from patent US20080194585A1, “Fungicidal Pyrazine Derivatives” (priority 2005, published 2008).
Marks after values point to notes of the source that are not given here.

Assays:
Conditions in all cases: 100 = 100% disease control, 0 = no control
Plasmopara viticola = experiment: Test D: grape downy mildew, spray after inoculation of grape seedlings; type: in vivo
Excerpt: Upon removal, disease ratings were made. […] A dash (-) indicates no test results.

Phytophthora infestans = experiment: whole plant or invertebrate; type: in vivo
Septoria tritici = experiment: Test J: wheat leaf blotch, preventive spray on wheat seedlings; type: in vivo
Excerpt: A dash (-) indicates no test results.

fusarium graminearium = experiment: Test I: wheat head scab, preventive spray on wheat seedlings
Method: (the causal agent of wheat head scab) and incubated in a saturated atmosphere at 20° C. for 72 h, and then moved to a growth chamber at 22° C. for 5 days, after which disease ratings were made.

[1] = test system: Puccinia recondita f. sp. tritici; experiment: Test K: wheat leaf rust, preventive spray on wheat seedlings
Botrytis cinerea = experiment: Test E: tomato botrytis, preventive spray on tomato seedlings
Septoria nodorum = experiment: Test H: wheat glum blotch, preventive spray on wheat seedlings
Method: (the causal agent of wheat glum blotch) and incubated in a saturated atmosphere at 20° C. for 48 h, and then moved to a growth chamber at 22° C. for 5 days, after which disease ratings were made.

[2] = test system: Erysiphe graminis f. sp. tritici; experiment: Test L: wheat powdery mildew, preventive spray on wheat seedlings
Pythium aphanidermatum = experiment: Test A: bluegrass pythium blight, preventive spray on bluegrass seedlings
Rhizoctonia oryzae = experiment: Test G: turf brown patch, preventive spray on creeping bent grass seedlings
Method: (the causal agent of turf brown patch) and incubated in a saturated atmosphere at 27° C. for 24 h, and then moved to a growth chamber at 27° C. for 5 days, after which disease ratings were made.

[3] = test system: Colletotrichum orbiculare; experiment: Test B: cucumber Colletotrichum anthracnose, preventive spray on cucumber seedlings

SMILES | Test D disease control rating (Plasmopara viticola; 200 ppm) | Test F disease control rating (Phytophthora infestans; 200 ppm) | Test J disease control rating (Septoria tritici; 200 ppm) | Test I disease control rating (fusarium graminearium; 200 ppm) | Test K disease control rating ([1]; 200 ppm) | Test E disease control rating (Botrytis cinerea; 200 ppm) | Test H disease control rating (Septoria nodorum; 200 ppm) | Test L disease control rating ([2]; 200 ppm) | Test A disease control rating (Pythium aphanidermatum; 200 ppm) | Test G disease control rating (Rhizoctonia oryzae; 200 ppm) | Test B disease control rating ([3]; 200 ppm) | Test D disease control rating (Plasmopara viticola; 40 ppm (marked *)) | Test F disease control rating (Phytophthora infestans; 40 ppm (marked *)) | Test J disease control rating (Septoria tritici; 40 ppm (marked *)) | Test I disease control rating (fusarium graminearium; 40 ppm (marked *)) | Test K disease control rating ([1]; 40 ppm (marked *)) | Test E disease control rating (Botrytis cinerea; 40 ppm (marked *)) | Test H disease control rating (Septoria nodorum; 40 ppm (marked *)) | Test L disease control rating ([2]; 40 ppm (marked *)) | Test A disease control rating (Pythium aphanidermatum; 40 ppm (marked *)) | also measured
CCCNC(=O)c1nc(Cl)c(-c2c(F)cccc2F)n(CC(C)CC)c1=O (stereo not drawn) [compound 299] | 40% | 90% | 100% | 100% | 100% | 99% | 99% | 95% | 69% | 31% | 40% | – | – | – | – | – | – | – | – | – | –
CC(C)c1c(Cl)nc(-n2cccn2)c(=O)n1Cc1ccccc1 [compound 304] | 0% | 49% | 100% | 0% | 100% | 99% | 0% | 46% | 0% | 31% | 0% | – | – | – | – | – | – | – | – | – | –
Cc1ccn(-c2nc(Cl)c(C(C)C)n(Cc3ccccc3)c2=O)n1 [compound 305] | 0% | 50% | 93% | 0% | 97% | 99% | 0% | 52% | 0% | 16% | 0% | – | – | – | – | – | – | – | – | – | –
CC(C)c1c(Cl)nc(-n2cccn2)c(=O)n1-c1ccccc1 [compound 306] | 0% | 30% | 44% | 0% | 51% | 0% | 0% | 0% | 0% | 0% | 0% | – | – | – | – | – | – | – | – | – | –
Cc1ccn(-c2nc(Cl)c(C(C)C)n(-c3ccccc3)c2=O)n1 [compound 307] | 0% | 84% | 20% | 49% | 51% | 88% | 0% | 0% | 0% | 0% | 0% | – | – | – | – | – | – | – | – | – | –
COC(=O)Cn1c(-c2c(F)cccc2F)c(Cl)nc(-n2ccc(C)n2)c1=O [compound 308] | – | – | – | – | – | – | – | – | – | – | – | 0* % | 0* % | 29* % | 0* % | 9* % | 0* % | 0* % | 0* % | 0* % | Test G disease control rating (Rhizoctonia oryzae; 40 ppm (marked *)): 0* %; Test B disease control rating ([3]; 40 ppm (marked *)): 0* %
CSCC(C)n1c(-c2c(F)cccc2F)c(Cl)nc(-n2ccc(C)n2)c1=O (stereo not drawn) [compound 309] | – | – | – | – | – | – | – | – | – | – | – | 0* % | 0* % | 5* % | 0* % | 0* % | 99* % | 0* % | 0* % | 0* % | Test G disease control rating (Rhizoctonia oryzae; 40 ppm (marked *)): 0* %; Test B disease control rating ([3]; 40 ppm (marked *)): 0* %
COCCn1c(-c2c(F)cccc2F)c(Cl)nc(-n2ccc(C)n2)c1=O [compound 310] | – | – | – | – | – | – | – | – | – | – | – | 0* % | 0* % | 42* % | 0* % | 74* % | 0* % | 64* % | 0* % | 0* % | Test G disease control rating (Rhizoctonia oryzae; 40 ppm (marked *)): 0* %; Test B disease control rating ([3]; 40 ppm (marked *)): 0* %
CSCCn1c(-c2c(F)cccc2F)c(Cl)nc(-n2ccc(C)n2)c1=O [compound 311] | – | – | – | – | – | – | – | – | – | – | – | 0* % | 0* % | 74* % | 0* % | 74* % | 94* % | 0* % | 0* % | 0* % | Test G disease control rating (Rhizoctonia oryzae; 40 ppm (marked *)): 0* %; Test B disease control rating ([3]; 40 ppm (marked *)): 0* %
COCC(C)n1c(-c2c(F)cccc2F)c(Cl)nc(-n2cccc2C#N)c1=O (stereo not drawn) [compound 312] | 40% | 9% | 13% | 0% | 0% | 0% | 0% | 0% | 0% | 0% | 0% | – | – | – | – | – | – | – | – | – | –
CC(C)Cn1c(-c2c(F)cccc2F)c(Cl)nc(N2CCCC2)c1=O [compound 314] | 0% | 0% | 0% | 18% | 0% | 0% | 0% | 0% | 88% | 0% | 0% | – | – | – | – | – | – | – | – | – | –
CC(C)Cn1c(C2CC2)c(Cl)nc(-n2cccn2)c1=O [compound 315] | 0% | 0% | 7% | 0% | 0% | 0% | 0% | 0% | 69% | 0% | 0% | – | – | – | – | – | – | – | – | – | –
CCc1c(Cl)nc(-n2cccn2)c(=O)n1CC(C)C [compound 316] | 0% | 0% | 0% | 0% | 0% | 0% | 0% | 0% | 54% | 0% | 0% | – | – | – | – | – | – | – | – | – | –
CCCCCc1c(Cl)nc(-n2cccn2)c(=O)n1CC(C)C [compound 317] | 0% | 0% | 28% | 0% | 41% | 0% | 0% | 0% | 0% | 0% | 0% | – | – | – | – | – | – | – | – | – | –
CC(C)Cn1c(-c2c(Cl)cc(Cl)cc2Cl)c(Cl)nc(-n2cccn2)c1=O [compound 318] | – | – | – | – | – | – | – | – | – | – | – | 0* % | 0* % | 100* % | 0* % | 97* % | 99* % | 97* % | 67* % | 0* % | Test G disease control rating (Rhizoctonia oryzae; 40 ppm (marked *)): 78* %; Test B disease control rating ([3]; 40 ppm (marked *)): 82* %
O=c1c(-n2cccn2)nc(Cl)c(-c2c(F)cc(F)cc2F)n1-c1ccccc1F [compound 320] | – | – | – | – | – | – | – | – | – | – | – | 0* % | 0* % | 100* % | 0* % | 99* % | 99* % | 100* % | 96* % | 74* % | Test G disease control rating (Rhizoctonia oryzae; 40 ppm (marked *)): 80* %; Test B disease control rating ([3]; 40 ppm (marked *)): 88* %
Cc1ccn(-c2nc(Cl)c(-c3c(F)cc(F)cc3F)n(-c3ccccc3)c2=O)n1 [compound 321] | – | – | – | – | – | – | – | – | – | – | – | 17* % | 0* % | 100* % | 82* % | 99* % | 99* % | 100* % | 0* % | 0* % | Test G disease control rating (Rhizoctonia oryzae; 40 ppm (marked *)): 70* %; Test B disease control rating ([3]; 40 ppm (marked *)): 94* %
O=c1c(-n2cccn2)nc(Cl)c(-c2ccc(F)cc2Cl)n1-c1ccccc1 [compound 322] | – | – | – | – | – | – | – | – | – | – | – | 0* % | 0* % | 100* % | 0* % | 92* % | 99* % | 98* % | 0* % | 0* % | Test G disease control rating (Rhizoctonia oryzae; 40 ppm (marked *)): 16* %; Test B disease control rating ([3]; 40 ppm (marked *)): 63* %
